Assay results: the supplement of paper PMC10627819
In brackets after ≈: the same amount, converted by molar mass.

Experiments:
S. aureus DSM 20231 [1] = system: S. aureus DSM 20231
S. aureus Newman [2] = system: S. aureus Newman
S. pneumoniae D39V [3] = system: S. pneumoniae D39V
B. subtilis 168 [4] = assay: fitness (endpoint OD595 vs no drug) (fraction); higher = more growth
Summary of the method: (§1)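 At 37 °C, bacteria in TSB, LB Lennox or CY were grown in 384-well plates from a starting OD595 of 0.01. OD595 was measured every 30 min for 14 h, with the first reading used as background. Fitness is the optical density at the switch to stationary phase as a fraction of the robust mean of no-drug control wells, capped at 1.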

S. aureus DSM 20231 [5] = assay: as above
Summary of the method: as §1

S. pneumoniae D39V [6] = assay: as above
Summary of the method: as §1

S. aureus Newman [7] = assay: as above
Summary of the method: as §1

B. subtilis 168 [8] = assay: Bliss interaction score (quartile over a dose matrix) (fitness difference); higher = more antagonism (negative = synergy)
Summary of the method: (§2)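 Quartiles of the Bliss score were taken over technical, biological and donor/recipient replicates. That score is observed fitness minus the product of the single-drug fitness values, which were inferred from combination data. Fitness itself is OD595 at entry into stationary phase divided by the plate's robust no-drug mean, with a cap at 1.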

S. aureus DSM 20231 [9] = assay: as above
Summary of the method: as §2

S. aureus Newman [10] = assay: as above
Summary of the method: as §2

S. pneumoniae D39V [11] = assay: as above
Summary of the method: as §2
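For Bliss interaction score (quartile over a dose matrix) in this document: first quartile when negative (synergy) and third quartile when positive (antagonism).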

CCC[C@@H]1C[C@@H](C(=O)N[C@@H]([C@H]2O[C@H](SC)[C@H](O)[C@@H](O)[C@H]2O)[C@@H](C)O)N(C)C1 [Lincomycin]
Details | MIC [µg/mL]
S. aureus DSM 20231 [1] | 0.4 (≈ 0.984 µM)
S. aureus Newman [2] | 0.4 (≈ 0.984 µM)
S. pneumoniae D39V [3] | 1.6 (≈ 3.94 µM)

fitness
Details | 0.1 µg/mL | 0.2 µg/mL | 0.4 µg/mL | 0.8 µg/mL | 1.6 µg/mL
B. subtilis 168 [4] | 0.862 | 0.823 | 0.852 | 0.878 | 0.854
S. aureus DSM 20231 [5] | 0.932 | 0.767 | 0.315 | – | –
S. pneumoniae D39V [6] | – | 0.648 | 0.432 | 0.211 | –

COc1c(N2C[C@@H]3CCCN[C@@H]3C2)c(F)cc2c(=O)c(C(=O)O)cn(C3CC3)c12 [Moxifloxacin]
Details | MIC [µg/mL]
S. aureus DSM 20231 [1] | 0.033 (≈ 0.0822 µM)
S. aureus Newman [2] | 0.033 (≈ 0.0822 µM)
S. pneumoniae D39V [3] | 0.25 (≈ 0.623 µM)

Details | fitness
B. subtilis 168 [4], 0.0312 µg/mL | 0.0397
B. subtilis 168 [4], 0.0625 µg/mL | 0.0388
B. subtilis 168 [4], 0.125 µg/mL | 0.0181
B. subtilis 168 [4], 2 µg/mL | 0.0291
B. subtilis 168 [4], 4 µg/mL | 0.0224
B. subtilis 168 [4], 8 µg/mL | 0.0114
S. aureus DSM 20231 [5], 0.0075 µg/mL | 0.888
S. aureus DSM 20231 [5], 0.015 µg/mL | 0.824
S. aureus DSM 20231 [5], 0.03 µg/mL | 0.665
S. aureus Newman [7], 0.0075 µg/mL | 0.748
S. aureus Newman [7], 0.015 µg/mL | 0.642
S. aureus Newman [7], 0.03 µg/mL | 0.0899
S. pneumoniae D39V [6], 0.0037 µg/mL | 0.9
S. pneumoniae D39V [6], 0.0075 µg/mL | 0.916
S. pneumoniae D39V [6], 0.015 µg/mL | 0.862
S. pneumoniae D39V [6], 0.0312 µg/mL | 0.134
S. pneumoniae D39V [6], 0.0625 µg/mL | 0.088
S. pneumoniae D39V [6], 0.125 µg/mL | 0.0638

COc1c(N2C[C@@H]3CCCN[C@@H]3C2)c(F)cc2c(=O)c(C(=O)O)cn(C3CC3)c12 [Moxifloxacin] + CN1C2=CC=CC=C2N=C3C1=CC=CC3=O [Pyocyanin]
fitness
Details | partner 0.325 µg/mL | partner 0.65 µg/mL | partner 1.25 µg/mL | partner 1.3 µg/mL | partner 2.5 µg/mL | partner 5 µg/mL
B. subtilis 168 [4], first compound 0.0312 µg/mL | – | – | 0.0609 | – | 0.0599 | 0.0529
B. subtilis 168 [4], first compound 0.0625 µg/mL | – | – | 0.0538 | – | 0.0598 | 0.057
B. subtilis 168 [4], first compound 0.125 µg/mL | – | – | 0.0466 | – | 0.047 | 0.0468
B. subtilis 168 [4], first compound 2 µg/mL | – | – | 0.0183 | – | 0.0257 | 0.0378
B. subtilis 168 [4], first compound 4 µg/mL | – | – | 0.0241 | – | 0.0221 | 0.0304
B. subtilis 168 [4], first compound 8 µg/mL | – | – | 0.012 | – | 0.0127 | 0.0179
S. aureus DSM 20231 [5], first compound 0.0075 µg/mL | – | – | 0.836 | – | 0.755 | 0.665
S. aureus DSM 20231 [5], first compound 0.015 µg/mL | – | – | 0.743 | – | 0.711 | 0.569
S. aureus DSM 20231 [5], first compound 0.03 µg/mL | – | – | 0.678 | – | 0.706 | 0.567
S. aureus Newman [7], first compound 0.0075 µg/mL | – | – | 0.679 | – | 0.605 | 0.372
S. aureus Newman [7], first compound 0.015 µg/mL | – | – | 0.51 | – | 0.434 | 0.221
S. aureus Newman [7], first compound 0.03 µg/mL | – | – | 0.157 | – | 0.138 | 0.0727
S. pneumoniae D39V [6], first compound 0.005 µg/mL | ≥ 1 | 0.988 | – | 0.797 | – | –
S. pneumoniae D39V [6], first compound 0.01 µg/mL | ≥ 1 | 0.98 | – | 0.828 | – | –
S. pneumoniae D39V [6], first compound 0.02 µg/mL | ≥ 1 | 0.959 | – | 0.788 | – | –

one replicate
Details | fitness
S. aureus DSM 20231 [5], first compound 0.06 µg/mL, partner 1.25 µg/mL | 0.671
S. aureus DSM 20231 [5], first compound 0.06 µg/mL, partner 2.5 µg/mL | 0.658
S. aureus DSM 20231 [5], first compound 0.06 µg/mL, partner 5 µg/mL | 0.651
S. aureus DSM 20231 [5], first compound 0.12 µg/mL, partner 1.25 µg/mL | 0.493
S. aureus DSM 20231 [5], first compound 0.12 µg/mL, partner 2.5 µg/mL | 0.514
S. aureus DSM 20231 [5], first compound 0.12 µg/mL, partner 5 µg/mL | 0.47
S. pneumoniae D39V [6], first compound 0.0037 µg/mL, partner 0.325 µg/mL | 0.925
S. pneumoniae D39V [6], first compound 0.0037 µg/mL, partner 0.65 µg/mL | 0.871
S. pneumoniae D39V [6], first compound 0.0075 µg/mL, partner 0.325 µg/mL | 0.948
S. pneumoniae D39V [6], first compound 0.0075 µg/mL, partner 0.65 µg/mL | 0.883
S. pneumoniae D39V [6], first compound 0.015 µg/mL, partner 0.325 µg/mL | 0.911
S. pneumoniae D39V [6], first compound 0.015 µg/mL, partner 0.65 µg/mL | 0.91

Details | Bliss interaction score
B. subtilis 168 [8] | -0.0123
S. aureus DSM 20231 [9] | 0.0656
S. aureus Newman [10] | -0.0614
S. pneumoniae D39V [11] | 0.0702
